According to patent US20260327243A1, “SPIRO-HETEROCYCLIC INHIBITORS OF KRAS G12C MUTANT PROTEINS AND USES THEREOF” (AMGEN INC., priority 2023, published 2026):

Columns and labels:
MIA PaCa-2 cells = assay: Cell Viability Assay, MIA PaCa-2; format: cell-based; conditions: human pancreatic carcinoma, CellTiter-Glo
Experimental: (§1) MIA PaCa-2 (human pancreatic carcinoma; ATCC CRL-1420) or A549 (human lung carcinoma; ATCC CCL-185) cells were cultured in RPMI 1640 medium containing 10% fetal bovine serum and 1×penicillin/streptomycin/L-glutamine. Cells were seeded in 384-well plates at a density of 1.67E+04 cells/mL and incubated at 37° C., 5% CO2, overnight. Serially-diluted compound or DMSO was added to the cells, and plates were incubated at 37° C., 5% CO2 for 72 h. Cell viability was measured using a CellTiter-Glo® Luminescent Cell Viability Assay kit (Promega) according to the manufacturer's protocol. The luminescence signal of treated samples was normalized to DMSO control, and data were analyzed using a 4-parameter logistic model to calculate IC50 values.
(§2) The following data (Table 3) categorizes the IC50 of each compound for inhibiting enzymatic activity of KRAS^G12C in the indicated cells.

A549 cells = assay: Cell Viability Assay, A549; format: cell-based; conditions: human lung carcinoma, 72 h, CellTiter-Glo
Experimental: as §1, §2

KRAS^G12C = KRAS^G12C (Homo sapiens, UniProt P01116, C118A/G12C); assay: Coupled Nucleotide Exchange Assay; format: biochemical; conditions: GDP-bound KRAS (aa 1-169) G12C/C118A; 2 h compound pre-incubation; SOS-mediated exchange, 30 min; cRAF binding (AlphaLISA)
Sequence of KRAS^G12C (P01116 1-169 isoform P01116-2 G12C/C118A): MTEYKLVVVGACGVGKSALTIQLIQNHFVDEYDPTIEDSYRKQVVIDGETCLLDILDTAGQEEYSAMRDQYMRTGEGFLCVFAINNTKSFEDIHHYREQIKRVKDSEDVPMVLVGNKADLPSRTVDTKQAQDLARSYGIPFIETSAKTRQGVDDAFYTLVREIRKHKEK
Method in brief: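 GDP-bound His-tagged KRAS aa 1-169 (G12C/C118A) pre-incubated 2 h with compound in 25 mM HEPES pH 7.4, 10 mM MgCl2, 0.01% Triton X-100 (±0.1% BSA), then SOS (aa 564-1049) plus GTP added for 30 min. GST-cRAF RBD binding read by AlphaLISA; DMSO-normalized, 4-parameter fit gives IC50.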

Row | IC50 (MIA PaCa-2 cells; Homo sapiens, MIA PaCa-2, 72 h) [nM] | IC50 (A549 cells; A549) [nM] | IC50 (KRAS^G12C) [nM] | IC50 (MIA PaCa-2 cells; 72 h) [nM] | IC50 (A549 cells) [nM] | SMILES
1 | 582 | > 5000 | 215 |  |  | C=CC(=O)N1CCN(C2CN(c3cc(N4CCC5(C=CCO5)CC4)nc(C(F)(F)F)c3C#N)C2)CC1 [Compound 3-059, 4-(3-(4-Acryloylpiperazin-1-yl)azetidin-1-yl)-6-(1-oxa-8-azaspiro[4.5]dec-3-en-8-yl)-2-(trifluoromethyl)nicotinonitrile]
2 | > 5000 | > 5000 | 969 |  |  | C=CC(=O)N1CCN(C2CN(c3cc(N4CCC5(CCC(=O)N5)CC4)nc(C(F)(F)F)c3C#N)C2)CC1 [Compound 3-016]
3 | 171 | > 5000 | 75 |  |  | C=CC(=O)N1CCN([C@@H]2CN(c3cc(N4CCC5(CC4)OCC(CF)n4ncc(C)c45)nc(C(F)(F)F)n3)[C@@H]2C)CC1 (stereo partly drawn) [Compound 3-083, 1-(4-((2R,3R)-1-(6-(7′-(fluoromethyl)-3′-methyl-6′,7′-dihydrospiro[piperidine-4,4′-pyrazolo[5,1-c][1,4]oxazin]-1-yl)-2-(trifluoromethyl)pyrimidin-4-yl)-2-methylazetidin-3-yl)piperazin-1-yl)prop-2-en-1-one]
4 | 331 | > 5000 | 54 |  |  | C=CC(=O)N1CCN([C@@H]2CN(c3cc(N4CC[C@]5(C[C@H]4C)OCCc4ncsc45)nc(C(F)(F)F)n3)[C@@H]2C)CC1 (single isomer, unassigned) [Compound 3-091-1]
5 | 267 | > 5000 | 69 |  |  | C=CC(=O)N1CCN([C@@H]2CN(c3cc(N4CCC5(CC4)OC(C)(C)c4nccc(C)c45)nc(C(F)F)n3)[C@@H]2C)CC1 [Compound 3-096, 1-(4-((2R,3R)-1-(2-(difluoromethyl)-6-(4,7,7-trimethyl-1′H,7H-spiro[furo[3,4-b]pyridine-5,4′-piperidin]-1′-yl)-4-pyrimidinyl)-2-methyl-3-azetidinyl)-1-piperazinyl)-2-propen-1-one]
6 | 1340 | > 3330 | 1790 |  |  | C=CC(=O)N1CCN(C2CN(c3cc(N4CCC5(CC4)OCc4ccccc45)nc(C(F)(F)F)c3C#N)C2)CC1 [Compound 3-028, 4-(3-(4-acryloylpiperazin-1-yl)azetidin-1-yl)-6-(3H-spiro[isobenzofuran-1,4′-piperidin]-1′-yl)-2-(trifluoromethyl)nicotinonitrile]
7 | 142 | > 5000 | 87 |  |  | C=CC(=O)N1CCN([C@@H]2CN(c3cc(N4CC[C@]5(C[C@H]4C)OC[C@H](CO)n4ncc(C)c45)nc(C(F)(F)F)n3)[C@@H]2C)CC1 (single isomer, unassigned) [Compound 3-087-2]
8 | 694 | > 5000 | 498 |  |  | C=CC(=O)N1CCN(C2CN(c3cc(N4CCC5(CC4)c4ccccc4CN5C)nc(C(F)(F)F)c3C#N)C2)CC1 [Compound 3-014]
9 |  | > 5000 | 128 | 603 |  | C=CC(=O)N1CCN(C2CN(c3cc(N4CCC5(CC4)OC(C)C=C5C)nc(C(F)(F)F)c3C#N)C2)CC1 (single isomer, unassigned) [Compound 3-054-1]
10 | 387 | > 5000 | 89 |  |  | C=CC(=O)N1CCN([C@@H]2CN(c3cc(N4CC[C@]5(C[C@H]4C)OCCn4ncc(C)c45)nc(C(F)F)n3)[C@@H]2C)CC1 [Compound 3-078, 1-(4-((2R,3R)-1-(2-(difluoromethyl)-6-((2R,4R)-2,3′-dimethyl-6′,7′-dihydro-1H-spiro[piperidine-4,4′-pyrazolo[5.1-c][1,4]oxazin]-1-yl)-4-pyrimidinyl)-2-methyl-3-azetidinyl)-1-piperazinyl)-2-propen-1-one]
11 | 226 | > 5000 | 85 |  |  | C=CC(=O)N1CCN([C@@H]2CN(c3cc(N4CCC5(CC4)OC[C@@H](COC)n4ncc(C)c45)nc(C(F)(F)F)n3)[C@@H]2C)CC1 [Compound 3-097, 1-(4-((2R,3R)-1-(6-((7′R)-7′-(methoxymethyl)-3′-methyl-6′,7′-dihydro-1H-spiro[piperidine-4,4′-pyrazolo[5,1-c][1.4]oxazin]-1-yl)-2-(trifluoromethyl)-4-pyrimidinyl)-2-methyl-3-azetidinyl)-1-piperazinyl)-2-propen-1-one]
12 |  |  | 381 | 1490 | > 5000 | C=CC(=O)N1CCN(C2CN(c3cc(N4CCC5(CC4)OC(C)C=C5C)nc(C(F)(F)F)c3C#N)C2)CC1 (single isomer, unassigned) [Compound 3-054-2]
13 | 936 | > 5000 | 184 |  |  | C=CC(=O)N1CCN([C@@H]2CN(c3cc(N4CCC5(CC4)OCC=C5C)nc(C(F)(F)F)n3)[C@@H]2C)CC1 [Compound 3-061, 1-(4-((2R,3R)-2-Methyl-1-(6-(4-methyl-1-oxa-8-azaspiro[4.5]dec-3-en-8-yl)-2-(trifluoromethyl)pyrimidin-4-yl)azetidin-3-yl)piperazin-1-yl)prop-2-en-1-one]
14 | 81 | > 5000 | 21 |  |  | C=CC(=O)N1CCN([C@@H]2CN(c3cc(N4CC[C@]5(C[C@H]4C)OC4(COC4)c4nccc(C)c45)nc(C(F)(F)F)n3)[C@@H]2C)CC1 [Compound 3-104, 1-(4-((2R,3R)-1-(6-((2″R,5′R)-2″,4′-dimethyl-1″H-dispiro[oxetane-3,7′-furo[3,4-b]pyridine-5′,4″-piperidin]-1″- yl)-2-(trifluoromethyl)-4-pyrimidinyl)-2-methyl-3-azetidinyl)-1-piperazinyl)-2-propen-1-one]
15 | 665 | > 5000 | 376 |  |  | C=CC(=O)N1CCN([C@@H]2CN(c3cc(N4CCC5(CC4)OCc4ncsc45)nc(C(F)(F)F)n3)[C@@H]2C)CC1 [Compound 3-001, 1-(4-((2R,3R)-1-(6-(4H-Spiro[furo[3,4-d]thiazole-6,4′-piperidin]-1′-yl)-2-(trifluoromethyl)pyrimidin-4-yl)-2-methylazetidin-3-yl)piperazin-1-yl) prop-2-en-1-one]
16 | 78 | > 5000 | 48 |  |  | C=CC(=O)N1CCN([C@@H]2CN(c3cc(N4CC[C@]5(C[C@H]4C)OC[C@@H](CO)n4ncc(C)c45)nc(C(F)(F)F)n3)[C@@H]2C)CC1 (single isomer, unassigned) [Compound 3-087-1]
17 | 214 | > 5000 | 72 |  |  | C=CC(=O)N1CCN([C@@H]2CN(c3cc(N4CCC5(CC4)OCCn4ncc(C)c45)nc(C(F)(F)F)n3)[C@@H]2C)CC1 [Compound 3-076, 1-(4-((2R,3R)-2-Methyl-1-(6-(3′-methyl-6′,7′-dihydrospiro[piperidine-4,4′-pyrazolo[5,1-c][1,4]oxazin]-1-yl)-2-(trifluoromethyl)pyrimidin-4-yl)azetidin-3-yl)piperazin-1-yl)prop-2-en-1-one]
18 | 259 | > 5000 | 70 |  |  | C=CC(=O)N1CCN([C@@H]2CN(c3cc(N4CCC5(CC4)OC[C@H](C)n4ncc(C)c45)nc(C(F)(F)F)n3)[C@@H]2C)CC1 [Compound 3-101, 1-(4-((2R,3R)-1-(6-((7′S)-3′,7′-dimethyl-6′,7′-dihydro-1H-spiro[piperidine-4,4′-pyrazolo[5.1-c][1,4]oxazin]-1-yl)-2-(trifluoromethyl)-4-pyrimidinyl)-2-methyl-3-azetidinyl)-1-piperazinyl)-2-propen-1-one]
